Reference: patent publication US10745393B2, “Small molecular probes, processes and use thereof” (JAWAHARLAL NEHRU CENTRE FOR ADVANCED SCIENTIFIC RESEARCH, priority 2014, dated 2020)
Like-named read-outs stand apart in the source and are kept apart here. Marks after values point to notes of the source that are not given here. One block for each compound: values may come before it.

Key:
[1] = system: Aβ plaques in CSF samples; assay: Detection of amyloid plaques in CSF samples by fluorescence; details: ThT 20 μM
Protocol: In the present experiment, Amyloid plaques in the CSF sample are detected as it is a hallmark of AD using ThT and QC. […] QC (10 μM) is used to detect Aβ plaques in the same set of CSF samples, which show the same trend as Thioflavin assay and stains CSF3, CSF5, CSF6 and CSF12 samples (FIG. 57 and table 6).

[2] = target: ThT/Aβ42 aggregate complex (Homo sapiens, UniProt P05067); assay: ThT displacement / FRET assay; type: binding; details: excess ThT 50 μM; TC 1 μM, Aβ42 50 μM
(AT)20 = assay: Fluorescence response / quantum yield of probes with dsDNA (AT)20; type: binding; details: for ΦF with (AT)20: Tris-HCl buffer (100 mM, pH 7.4)
cells [3] = details: Table 3, commercial dyes; cited from earlier work
DNA [4] = details: cited from earlier work; for Fluorescence qauntum yield (ΦF) DNA bound dye: Table 3, superscript a, commercial dyes
cells [5] = details: Table 3, commercial dyes; cited from earlier work; remark: listed apart in the source
HEK293 cells = assay: DNase I and RNase digestion studies; type: cell-based; details: 2 hours
Protocol: DNase I is known to degrade nuclear DNA while RNase degrades RNA in the cytoplasm by catalyzing phosphodiester bonds cleavage. HEK293 cells are fixed with chilled methanol for about 1 minute at room temperature and permeabilized with 0.1% Triton X-100 in PBS for about 2×5 minutes. After rinsing with PBS twice, for one set of experiments, cells are treated with probe TC (5 μM) for about 15 min at room temperature in three adjacent wells. A total of about 200 μL PBS (as control experiment), about 100 μg/mL DNase I (Sigma), or about 30 μg/ml DNase-Free RNase (GE) is added into the three adjacent wells and incubated at about 37° C. for about 2 hours. For another set of experiments, instead of treating with probe TC, cells are only treated with about 200 μL PBS (as control experiment), about 100 μg/ml DNase I (Sigma), or about 30 μg/mL DNase-Free RNase (GE) by adding into the three adjacent wells and incubating at about 37° C. for about 2 hours. […] After two more washes in PBS with 0.1% Triton X-100, the cover slips are washed in PBS, rinsed in ddH2O and briefly dipped in 100% ethanol. After a quick dry, cover slips are mounted with 70% glycerol. Images are captured using a Carl Zeiss Laser Scanning Microscope (LSM510 META) using an equal exposure time for control, DNase I, and RNase experiments. Experiments are done in duplicate.

(GC)10 = assay: Fluorescence response / quantum yield of probes with dsDNA (GC)10; type: binding; details: for ΦF with (GC)10: Tris-HCl buffer (100 mM, pH 7.4); for fluorescence change in presence of (GC)10: probe 10 μM
DNA [6] = assay: Comparison of DNA dyes: sequence selectivity and fluorescence of free/DNA bound dye; type: binding
(D1)mix = assay: Fluorescence response / quantum yield of probes with dsDNA (D1)mix; type: binding; details: Tris-HCl buffer (100 mM, pH 7.4)
[7] = Absorption, emission and quantum yield of probes in Tris-HCl buffer without DNA; type: physicochemical; details: for ΦF in Buffer: Tris-HCl buffer (100 mM, pH 7.4), absence of DNA; for emission (fluorescence) maxima / absorption maxima: Tris-HCl buffer, no DNA; for emission (fluorescence) maxima: very weak fluorescence; for absorption maxima: probe 10 μM
[8] = system: ssDNA oligonucleotides (dA10, dT10, dG10 and dC10); assay: Fluorescence emission in presence of ssDNA oligonucleotides; type: binding; details: probe 10 μM, Tris-HCl buffer
(AT)10 = assay: Absorption / fluorescence response of probes with dsDNA (AT)10; type: binding; details: for fluorescence enhancement in presence of (AT)10: probe 10 μM, DNA 0 to 12 μM
[9] = Absorption, emission and quantum yield of probes without Aβ42 aggregates; type: physicochemical
Aβ42 aggregates = Aβ42 aggregates (Homo sapiens, UniProt P05067); assay: Absorption / fluorescence response with Aβ42 fibrillar aggregates; type: binding
[10] = fluorescence studies with dsDNAs

Chain of Aβ42 aggregates (P05067 672-713 limits assumed): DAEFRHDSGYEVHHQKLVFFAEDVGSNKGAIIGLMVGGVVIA
Chain of ThT/Aβ42 aggregate complex (P05067 672-713 limits assumed, one chain of several): as the sequence (P05067 672-713 limits assumed) above

SMILES: Cc1ccc2c(c1)sc(-c1ccc(N(C)C)cc1)[n+]2C.[Cl-] [ThT, Thioflavin T, reference compound]
Normalized fluorescence intensity (ThT) ([1]; sample CSF1): 14.35
Normalized fluorescence intensity (ThT) ([1]; sample CSF2): 5.60
Normalized fluorescence intensity (ThT) ([1]; sample CSF3): 18.25
Normalized fluorescence intensity (ThT) ([1]; sample CSF4): 7.45
Normalized fluorescence intensity (ThT) ([1]; sample CSF5): 40.65
Normalized fluorescence intensity (ThT) ([1]; sample CSF6): 24.40
Normalized fluorescence intensity (ThT) ([1]; sample CSF7): 5.75
Normalized fluorescence intensity (ThT) ([1]; sample CSF8): 8.40
Normalized fluorescence intensity (ThT) ([1]; sample CSF9): 7.50
Normalized fluorescence intensity (ThT) ([1]; sample CSF10): 3.26
Normalized fluorescence intensity (ThT) ([1]; sample CSF11): 8.35
Normalized fluorescence intensity (ThT) ([1]; sample CSF12): 37.50
Normalized fluorescence intensity (ThT) ([1]; sample CSF13): 4.20
Normalized fluorescence intensity (ThT) ([1]; sample CSF14): 4.52
displacement of TC from its complex with Aβ42 aggregates by excess ThT [2]: does not displace TC

SMILES: CC[N+](C)(CC)CCC[n+]1c(-c2ccccc2)c2cc(N)ccc2c2ccc(N)cc21.[I-].[I-] [Propidium iodide]
comparative fluorescence response in presence of (AT)20 ((AT)20; dye 10 μM, Tris-HCl buffer): do not show appreciable fluorescence changes
Toxicity (cells [3]): Toxic
Fluorescence maxima DNA bound dye (DNA [4]; Table 3, commercial dyes): 617 nm
Fluorescence maxima free dye (DNA [4]; Table 3, commercial dyes): 646 nm
Fluorescence qauntum yield (ΦF) DNA bound dye (DNA [4]): 0.13^a
Cell permeability (cells [5]): Impermeable

SMILES: CN1CCN(c2ccc3[nH]c(-c4ccc5[nH]c(-c6ccc(O)cc6)nc5c4)nc3c2)CC1 [Hoechst33258, Hoechst 33258]
Toxicity (cells [3]): Non-Toxic
fluorescence nuclear staining after DNase I digestion (HEK293 cells; DNase I about 100 μg/mL): almost completely diminished
fluorescence nuclear staining after RNase digestion (HEK293 cells; RNase about 30 μg/mL): does not affect the fluorescence staining
Fluorescence maxima DNA bound dye (DNA [4]): 490/450 nm
Fluorescence maxima free dye (DNA [4]): 490/450 nm
Cell permeability (cells [5]): Permeable

preferential binding affinity, AT-sites versus GC-sites (DNA [6]; [10]): towards AT-sites than GC-sites
ΦF in Buffer [7]: 0.003
emission (fluorescence) maxima [7]: 689 nm
absorption maxima [7]: 519 nm
SMILES: CCN(CC)c1ccc2cc(/C=C/c3cc[n+](C)c4ccccc34)c(=O)oc2c1 [CL, coumarin lepidine]
ΦF with (AT)20 ((AT)20): 0.102
ΦF with (GC)10 ((GC)10): 0.007
ΦF with (D1)mix ((D1)mix): 0.052

preferential binding affinity, AT-sites versus GC-sites (DNA [6]; [10]): towards AT-sites than GC-sites
SMILES: C#CC[n+]1c(/C=C/c2cc3ccc(N(CC)CC)cc3oc2=O)sc2ccccc21 [TCP, (E)-3-(2-(N-(prop-2-ynyl)-benzo[d]thiazol-2-yl)vinyl)-7-(diethylamino)-2H-chromen-2-one]
emission behaviour in presence of ssDNA [8]: do not show significant changes in the emission behaviour
fluorescence change in presence of (GC)10 ((GC)10): no change
probe concentration at which fluorescence saturates ((AT)10; fixed concentration of DNAs ((AT)10, (D1)mix, (D2)mix), FIG. 32): about 5 μM
fluorescence enhancement in presence of (AT)10 ((AT)10): 6 fold

SMILES: N=C(N)c1ccc(-c2cc3ccc(C(=N)N)cc3[nH]2)cc1 [DAPI, 4′,6-Diamidino-2-phenylindole]
Toxicity (cells [3]): Non-toxic
Fluorescence maxima DNA bound dye (DNA [4]; Table 3, commercial dyes): 450 nm
Fluorescence maxima free dye (DNA [4]; Table 3, commercial dyes): 496 nm
Selectivity (DNA [4]; Table 3, commercial dyes): AT rich
Fluorescence qauntum yield (ΦF) DNA bound dye (DNA [4]): 0.42^a
Cell permeability (cells [5]): Semi-Permeable

SMILES: C[n+]1c(/C=C/c2ccc3ccc4cccc5ccc2c3c45)sc2ccccc21 [TP, thiazole pyrene]
ΦF with (AT)20 ((AT)20): 0.042
ΦF with (GC)10 ((GC)10): 0.005
preferential binding affinity, AT-sites versus GC-sites (DNA [6]): towards AT-sites than GC-sites
emission maximum in absence of Aβ42 aggregates [9]: 623 nm
absorption maximum in absence of Aβ42 aggregates ([9]; pH 7.4): 460 nm
change in absorption and colour with Aβ42 aggregates (Aβ42 aggregates): fails to exhibit any detectable change in absorption
change in fluorescence in presence of Aβ42 aggregates (Aβ42 aggregates): does not show any detectable change in the fluorescence behavior
ΦF with (D1)mix ((D1)mix): 0.026
ΦF in Buffer [7]: 0.002
emission (fluorescence) maxima [7]: 623 nm
absorption maxima [7]: 460 nm

preferential binding affinity, AT-sites versus GC-sites (DNA [6]; [10]): towards AT-sites than GC-sites
SMILES: CCN(CC)c1ccc2cc(/C=C/c3sc4ccccc4[n+]3CC)c(=O)oc2c1 [TCE, (E)-3-(2-(N-ethyl-benzo[d]thiazol-2-yl)vinyl)-7-(diethylamino)-2H-chromen-2-one]
emission behaviour in presence of ssDNA [8]: do not show significant changes in the emission behaviour
fluorescence change in presence of (GC)10 ((GC)10): no appreciable change
fluorescence enhancement in presence of (AT)10 ((AT)10): 5 fold

SMILES: CC[n+]1c(-c2ccccc2)c2cc(N)ccc2c2ccc(N)cc21 [Ethidium bromide]
Toxicity (cells [3]): Toxic
Cell permeability (cells [5]): Impermeable
